# Assay results: the kinase profiling compilation of Christmann-Franck et al. (2016)
# Key:
# Assay in all cases: KINOMEscan competition binding
# Conditions in all cases: compound 10.0 µM
# [1] = test system: KIT (human), P10721 [D816V]
# [2] = test system: PIK3CA (human), P42336 [H1047Y]
# [3] = test system: FLT3 (human), P36888 [K663Q]
# [4] = test system: PIK3CA (human), P42336 [Q546K]
# [5] = test system: FLT3 (human), P36888 [N841I]
# [6] = test system: PIK3CA (human), P42336 [E545K]
# [7] = test system: PIK3CA (human), P42336 [I800L]
# Sequence of PIK3CA (human), P42336 [I800L] (P42336 whole entry I800L, looked up): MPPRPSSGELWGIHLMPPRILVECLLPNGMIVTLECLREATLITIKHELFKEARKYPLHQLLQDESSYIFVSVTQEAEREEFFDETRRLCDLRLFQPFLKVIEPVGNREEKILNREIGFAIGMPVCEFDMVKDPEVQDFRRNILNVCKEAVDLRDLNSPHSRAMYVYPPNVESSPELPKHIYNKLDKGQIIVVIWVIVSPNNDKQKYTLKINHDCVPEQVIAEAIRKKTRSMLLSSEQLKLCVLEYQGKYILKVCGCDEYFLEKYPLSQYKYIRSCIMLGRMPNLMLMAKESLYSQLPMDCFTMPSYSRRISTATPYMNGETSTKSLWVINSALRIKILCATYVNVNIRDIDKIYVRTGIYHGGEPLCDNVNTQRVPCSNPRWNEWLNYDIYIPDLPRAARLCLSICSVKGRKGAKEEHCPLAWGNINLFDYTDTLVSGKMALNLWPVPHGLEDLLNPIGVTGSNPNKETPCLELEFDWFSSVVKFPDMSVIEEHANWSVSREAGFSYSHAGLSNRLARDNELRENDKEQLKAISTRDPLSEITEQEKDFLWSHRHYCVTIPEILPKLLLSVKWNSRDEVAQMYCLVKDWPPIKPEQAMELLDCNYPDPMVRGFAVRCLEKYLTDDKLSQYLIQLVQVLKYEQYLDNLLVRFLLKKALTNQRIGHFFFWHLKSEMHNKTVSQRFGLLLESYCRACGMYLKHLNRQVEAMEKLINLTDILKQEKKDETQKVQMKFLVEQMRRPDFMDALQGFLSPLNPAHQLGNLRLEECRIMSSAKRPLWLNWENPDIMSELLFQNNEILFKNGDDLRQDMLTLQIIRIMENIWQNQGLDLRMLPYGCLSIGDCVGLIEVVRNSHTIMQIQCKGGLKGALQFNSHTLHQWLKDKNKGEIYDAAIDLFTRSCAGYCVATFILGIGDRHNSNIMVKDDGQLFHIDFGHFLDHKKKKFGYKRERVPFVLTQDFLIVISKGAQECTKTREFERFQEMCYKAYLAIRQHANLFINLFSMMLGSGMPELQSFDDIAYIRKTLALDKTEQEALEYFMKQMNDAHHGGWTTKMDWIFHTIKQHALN
# [8] = test system: ABL1 (human), P00519 [E255K]
# [9] = test system: EGFR (human), P00533 [P753S; 747-752 del]
# [10] = test system: KIT (human), P10721 [V559D]
# Sequence of KIT (human), P10721 [V559D] (P10721 whole entry V559D, looked up): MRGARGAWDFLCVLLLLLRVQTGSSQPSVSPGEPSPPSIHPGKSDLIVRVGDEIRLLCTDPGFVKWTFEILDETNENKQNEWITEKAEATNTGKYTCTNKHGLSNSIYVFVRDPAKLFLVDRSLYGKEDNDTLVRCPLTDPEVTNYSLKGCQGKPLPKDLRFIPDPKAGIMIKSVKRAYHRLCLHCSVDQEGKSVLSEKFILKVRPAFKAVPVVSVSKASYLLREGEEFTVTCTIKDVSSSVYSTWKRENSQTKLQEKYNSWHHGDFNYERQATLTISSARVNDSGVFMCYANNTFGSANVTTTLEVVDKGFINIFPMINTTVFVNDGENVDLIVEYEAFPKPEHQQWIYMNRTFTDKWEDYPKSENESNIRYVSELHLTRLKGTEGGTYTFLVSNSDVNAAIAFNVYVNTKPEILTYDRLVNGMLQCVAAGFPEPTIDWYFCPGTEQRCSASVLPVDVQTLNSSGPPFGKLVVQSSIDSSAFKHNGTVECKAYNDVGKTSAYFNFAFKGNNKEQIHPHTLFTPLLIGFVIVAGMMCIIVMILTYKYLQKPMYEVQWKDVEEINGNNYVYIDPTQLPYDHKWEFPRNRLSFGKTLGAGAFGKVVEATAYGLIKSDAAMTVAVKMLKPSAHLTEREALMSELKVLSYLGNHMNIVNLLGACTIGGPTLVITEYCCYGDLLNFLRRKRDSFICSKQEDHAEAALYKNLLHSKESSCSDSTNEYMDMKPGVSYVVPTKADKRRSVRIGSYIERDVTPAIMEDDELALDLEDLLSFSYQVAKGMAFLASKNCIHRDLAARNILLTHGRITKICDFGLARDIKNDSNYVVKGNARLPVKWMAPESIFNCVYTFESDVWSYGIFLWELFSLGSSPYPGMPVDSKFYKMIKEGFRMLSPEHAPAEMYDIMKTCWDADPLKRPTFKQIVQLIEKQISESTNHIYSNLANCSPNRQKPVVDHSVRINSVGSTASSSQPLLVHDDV
# [11] = test system: ABL1 (human), P00519 [M351T]
# [12] = test system: EGFR (human), P00533 [746-750 del]
# [13] = test system: EGFR (human), P00533 [G719S]
# [14] = test system: FLT3 (human), P36888 [ITD]
# [15] = test system: PIK3CA (human), P42336 [C420R]
# Sequence of PIK3CA (human), P42336 [C420R] (P42336 whole entry C420R, looked up): as the sequence (P42336 whole entry I800L, looked up) above, with C420R, L800I counted along it
# [16] = test system: EIF2AK4 KD2 (human), Q9P2K8 [S808G]
# Sequence of EIF2AK4 KD2 (human), Q9P2K8 [S808G] (Q9P2K8 whole entry S808G, looked up): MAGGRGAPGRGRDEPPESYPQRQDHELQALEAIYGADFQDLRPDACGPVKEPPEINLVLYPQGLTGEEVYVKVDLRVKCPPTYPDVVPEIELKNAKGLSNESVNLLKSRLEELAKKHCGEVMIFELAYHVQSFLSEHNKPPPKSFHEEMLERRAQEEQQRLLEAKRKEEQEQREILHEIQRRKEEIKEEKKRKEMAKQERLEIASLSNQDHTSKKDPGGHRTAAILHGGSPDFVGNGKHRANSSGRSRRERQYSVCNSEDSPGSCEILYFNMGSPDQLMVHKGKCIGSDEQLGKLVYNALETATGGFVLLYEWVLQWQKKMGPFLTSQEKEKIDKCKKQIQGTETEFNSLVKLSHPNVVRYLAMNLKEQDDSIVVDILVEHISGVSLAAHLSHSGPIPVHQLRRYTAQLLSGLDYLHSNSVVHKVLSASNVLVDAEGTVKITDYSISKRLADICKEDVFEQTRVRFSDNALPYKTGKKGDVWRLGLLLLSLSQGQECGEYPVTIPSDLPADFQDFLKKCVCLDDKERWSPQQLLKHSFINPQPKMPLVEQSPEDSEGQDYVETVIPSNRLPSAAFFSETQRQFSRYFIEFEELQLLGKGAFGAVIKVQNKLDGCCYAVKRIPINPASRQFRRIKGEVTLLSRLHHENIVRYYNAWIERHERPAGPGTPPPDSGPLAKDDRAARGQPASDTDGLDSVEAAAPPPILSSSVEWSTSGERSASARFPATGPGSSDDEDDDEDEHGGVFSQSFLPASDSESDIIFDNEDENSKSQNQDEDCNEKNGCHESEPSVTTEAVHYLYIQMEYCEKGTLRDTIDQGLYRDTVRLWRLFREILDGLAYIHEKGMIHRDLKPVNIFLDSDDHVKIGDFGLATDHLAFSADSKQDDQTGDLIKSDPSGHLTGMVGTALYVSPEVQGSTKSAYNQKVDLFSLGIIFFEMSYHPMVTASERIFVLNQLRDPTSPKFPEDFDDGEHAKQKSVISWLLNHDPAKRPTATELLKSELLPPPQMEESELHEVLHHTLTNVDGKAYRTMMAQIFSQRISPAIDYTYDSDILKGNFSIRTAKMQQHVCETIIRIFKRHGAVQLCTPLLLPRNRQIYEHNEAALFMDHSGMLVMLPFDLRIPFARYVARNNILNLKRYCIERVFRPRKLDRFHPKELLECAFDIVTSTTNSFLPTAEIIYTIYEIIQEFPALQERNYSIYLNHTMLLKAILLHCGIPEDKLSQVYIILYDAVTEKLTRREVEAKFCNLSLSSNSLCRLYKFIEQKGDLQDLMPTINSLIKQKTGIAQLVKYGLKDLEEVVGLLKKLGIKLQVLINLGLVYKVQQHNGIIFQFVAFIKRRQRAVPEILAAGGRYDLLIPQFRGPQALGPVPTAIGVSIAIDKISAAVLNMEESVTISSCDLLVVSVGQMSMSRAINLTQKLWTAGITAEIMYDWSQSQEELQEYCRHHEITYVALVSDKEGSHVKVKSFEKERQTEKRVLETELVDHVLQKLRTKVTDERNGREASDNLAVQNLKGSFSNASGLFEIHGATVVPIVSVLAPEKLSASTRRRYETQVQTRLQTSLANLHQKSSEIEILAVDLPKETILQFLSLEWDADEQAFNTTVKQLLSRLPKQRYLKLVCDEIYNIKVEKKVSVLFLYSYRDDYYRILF
# [17] = test system: KIT (human), P10721 [V559D/T670I]
# Sequence of KIT (human), P10721 [V559D/T670I] (P10721 whole entry V559D/T670I, looked up): as the sequence (P10721 whole entry V559D, looked up) above, with T670I counted along it
# [18] = test system: PIK3CA (human), P42336 [E545A]
# Sequence of PIK3CA (human), P42336 [E545A] (P42336 whole entry E545A, looked up): as the sequence (P42336 whole entry I800L, looked up) above, with E545A, L800I counted along it
# [19] = test system: EGFR (human), P00533 [L861Q]
# Sequence of PIK3CA (human), P42336 [Q546K] (P42336 whole entry Q546K, looked up): as the sequence (P42336 whole entry I800L, looked up) above, with Q546K, L800I counted along it
# Sequence of KIT (human), P10721 [D816V] (P10721 whole entry D816V, looked up): as the sequence (P10721 whole entry V559D, looked up) above, with D559V, D816V counted along it
# Sequence of PIK3CA (human), P42336 [H1047Y] (P42336 whole entry H1047Y, looked up): as the sequence (P42336 whole entry I800L, looked up) above, with L800I, H1047Y counted along it
# Sequence of PIK3CA (human), P42336 [E545K] (P42336 whole entry E545K, looked up): as the sequence (P42336 whole entry I800L, looked up) above, with E545K, L800I counted along it
Structure (SMILES),"kinase still bound, per cent of control [1]","kinase still bound, per cent of control [2]","kinase still bound, per cent of control [3]","kinase still bound, per cent of control [4]","kinase still bound, per cent of control [5]","kinase still bound, per cent of control [6]","kinase still bound, per cent of control [7]","kinase still bound, per cent of control [8]","kinase still bound, per cent of control [9]","kinase still bound, per cent of control [10]","kinase still bound, per cent of control [11]","kinase still bound, per cent of control [12]","kinase still bound, per cent of control [13]","kinase still bound, per cent of control [14]","kinase still bound, per cent of control [15]","kinase still bound, per cent of control [16]","kinase still bound, per cent of control [17]","kinase still bound, per cent of control [18]","kinase still bound, per cent of control [19]"
O=C1NC(=O)/C(=C/c2ccc3nccc(-c4ccncc4)c3c2)S1,63%,0.9%,37%,1.3%,39%,0.75%,12%,71%,74%,30%,56%,81%,78%,47%,0.4%,7.4%,76%,0.1%,87%
COc1cc2ncnc(Nc3cccc(Cl)c3)c2cc1OC,38%,95%,35%,82%,7.2%,71%,46%,6.6%,1.4%,16%,1.4%,3.3%,0.9%,24%,60%,56%,49%,98%,0.1%
O=c1cc(N2CCOCC2)oc2c(-c3cccc4c3sc3ccccc34)cccc12,58%,11%,86%,16%,100%,24%,2.2%,100%,90%,80%,100%,69%,100%,93%,19%,100%,100%,8.2%,100%
COc1cc2c(Nc3ccc(NC(=O)c4ccccc4)cc3)ncnc2cc1OCCCN1CCOCC1,42%,24%,4%,17%,6%,98%,100%,45%,41%,0%,32%,36%,0.5%,45%,68%,43%,1.9%,19%,6.2%
CNC(=O)Nc1ccc(-c2nc(N3CC4CCC(C3)O4)c3cnn(C4CCC5(CC4)OCCO5)c3n2)cc1,82%,9.6%,69%,11%,89%,11%,5%,100%,62%,85%,100%,38%,69%,100%,11%,83%,100%,8.8%,64%
